Laboratory results: PMC10590056, “Design and synthesis of cabotegravir derivatives bearing 1,2,3-triazole and evaluation of anti-liver cancer activity” (Frontiers in Pharmacology, 2023)
“And” between values parts separate entries of the source, which are not always exact repeats. Equal entries are not always repeated.

Tests used:
Type in all cases: cell-based
HepG2 cells = test: MTT assay for cell proliferation and cytotoxicity, HepG2; design: key to Inhibitory rate: inhibition rate = 1 - mean A490 sample/mean A490 control (fraction); settings: for IC50: HepG2, 48 h, MTT; for Inhibitory rate / ODtreated/ODcontrol: HepG2, fraction, per experiment; for Inhibition rate (16μM), 48 h, HepG2: preliminary screening, HepG2, 16 μM, mean±SD, unit not given
Experimental: (§1) HepG2, HeLa, MCF-7, and KYSE-30 cells were grown in a humidified incubator at 37°C with 5% CO2 in DMEM supplemented with 10% fetal bovine serum (FBS), […] streptomycin, and 100 U/mL penicillin.
(§2) When HepG2 cells reached 80% confluence, they were treated with 1 mL of trypsin and resuspended at a density of 10^5 cells/mL. Then, 100 μL of cell suspension was seeded into each well of a 96-well plate and incubated in a humidified atmosphere. The different concentrations of KJ-5 and KJ-12 (0, 1, 2, 4, 8, 16, and 32 μM) were added to each well, and the cells were further incubated for 48 h. Afterward, 20 μL of the MTT solution (5 mg/mL) was added to each well, and incubation was continued for another 4 h. The supernatant was discarded, and 200 μL of the DMSO solution was added to each well. The plate was shaken for 10 min in the dark. The absorbance values were measured at 490 nm using an enzyme-linked detector. The cell inhibition rate (%) was calculated using the following formula: (1-Mean A490 sample/Mean A490 control) × 100%.

HeLa cells = test: MTT assay for cell proliferation, HeLa; design: key to Inhibitory rate: inhibition rate = 1 - mean A490 sample/mean A490 control (fraction); settings: Hela; for Inhibitory rate / ODtreated/ODcontrol: fraction, per experiment; for Inhibition rate (16μM), 48 h, Hela: preliminary screening, mean±SD, unit not given
Experimental: as §1, §2

KYSE-30 cells = test: MTT assay for cell proliferation, KYSE-30; design: key to Inhibitory rate: inhibition rate = 1 - mean A490 sample/mean A490 control (fraction); settings: for Inhibitory rate: KYSE-30, given as fraction; for Inhibition rate (16μM), 48 h, KYSE-30: preliminary screening, KYSE-30, 16 μM, mean±SD, unit not given
Experimental: as §1, §2

MCF-7 cells = test: MTT assay for cell proliferation, MCF-7; design: key to Inhibitory rate / Inhibition rate: inhibition rate = 1 - mean A490 sample/mean A490 control (fraction); settings: for Inhibition rate (16μM), 48 h, MCF-7: preliminary screening, MCF-7, 16 μM, mean±SD, unit not given
Experimental: as §1, §2

[1] = KYSE-30, first of three experiments
[2] = KYSE-30, second of three experiments
[3] = KYSE-30, third of three experiments
[4] = MCF-7, fraction, per experiment
[5] = given as fraction, second of three experiments
[6] = given as fraction, third of three experiments

SMILES: COc1c2n(cc(C(=O)Nc3cccc(-c4cn(-c5ccccc5Br)nn4)c3)c1=O)CC1OCC(C)N1C2=O (stereo not shown) [KJ-13]
- IC50 (HepG2 cells): > 50 µM
- Inhibitory rate (HepG2 cells): 0.2436 and 0.2489 and 0.2333
- ODtreated/ODcontrol (HepG2 cells): 0.7564 and 0.7511 and 0.7667
- Inhibition rate (16μM), 48 h, HepG2 (HepG2 cells): 24.19±0.79
- Inhibitory rate (HeLa cells): 0.1723 and 0.1977 and 0.2047
- ODtreated/ODcontrol (HeLa cells): 0.8277 and 0.8023 and 0.7953
- Inhibition rate (16μM), 48 h, Hela (HeLa cells): 19.16±1.71
- ODtreated/ODcontrol (KYSE-30 cells; [1]): 0.7102
- Inhibitory rate (KYSE-30 cells; first of three experiments): 0.2898
- Inhibitory rate (KYSE-30 cells; second of three experiments): 0.2542
- Inhibitory rate (KYSE-30 cells; third of three experiments): 0.2107
- ODtreated/ODcontrol (KYSE-30 cells; [2]): 0.7458
- ODtreated/ODcontrol (KYSE-30 cells; [3]): 0.7893
- Inhibition rate (16μM), 48 h, KYSE-30 (KYSE-30 cells): 25.16±3.96
- Inhibitory rate (MCF-7 cells; [4]): 0.2953
- ODtreated/ODcontrol (MCF-7 cells; [4]): 0.7047
- Inhibitory rate (MCF-7 cells; [5]): 0.2534
- Inhibition rate (MCF-7 cells; [6]): 0.2193
- Inhibition rate (16μM), 48 h, MCF-7 (MCF-7 cells): 25.6±3.81
- ODtreated/ODcontrol (MCF-7 cells; second of three experiments): 0.7467
- ODtreated/ODcontrol (MCF-7 cells; third of three experiments): 0.7807

SMILES: COc1c2n(cc(C(=O)Nc3cccc(-c4cn(-c5cccc(F)c5)nn4)c3)c1=O)C[C@H]1OC[C@H](C)N1C2=O [KJ-6]
- IC50 (HepG2 cells): 7.63 ± 1.2 µM
- Inhibitory rate (HepG2 cells): 0.6124 and 0.6058 and 0.5961
- ODtreated/ODcontrol (HepG2 cells): 0.3876 and 0.3942 and 0.4039
- Inhibition rate (16μM), 48 h, HepG2 (HepG2 cells): 60.48±0.82
- Inhibitory rate (HeLa cells): 0.6049 and 0.5572 and 0.5217
- ODtreated/ODcontrol (HeLa cells): 0.3951 and 0.4428 and 0.4783
- Inhibition rate (16μM), 48 h, Hela (HeLa cells): 56.13±4.18
- ODtreated/ODcontrol (KYSE-30 cells; [1]): 0.3817
- Inhibitory rate (KYSE-30 cells; first of three experiments): 0.6183
- Inhibitory rate (KYSE-30 cells; second of three experiments): 0.5213
- Inhibitory rate (KYSE-30 cells; third of three experiments): 0.4998
- ODtreated/ODcontrol (KYSE-30 cells; [2]): 0.4787
- ODtreated/ODcontrol (KYSE-30 cells; [3]): 0.5002
- Inhibition rate (16μM), 48 h, KYSE-30 (KYSE-30 cells): 54.65±6.31
- Inhibitory rate (MCF-7 cells; [4]): 0.5139
- ODtreated/ODcontrol (MCF-7 cells; [4]): 0.4861
- Inhibitory rate (MCF-7 cells; [5]): 0.536
- Inhibition rate (MCF-7 cells; [6]): 0.519
- Inhibition rate (16μM), 48 h, MCF-7 (MCF-7 cells): 52.3±1.16
- ODtreated/ODcontrol (MCF-7 cells; second of three experiments): 0.464
- ODtreated/ODcontrol (MCF-7 cells; third of three experiments): 0.481

SMILES: COc1c2n(cc(C(=O)Nc3cccc(-c4cn(-c5ccccc5)nn4)c3)c1=O)CC1OCC(C)N1C2=O (stereo not shown) [KJ-16]
- IC50 (HepG2 cells): 28.82 ± 0.1 µM
- Inhibitory rate (HepG2 cells): 0.4156 and 0.4284 and 0.3769
- ODtreated/ODcontrol (HepG2 cells): 0.5844 and 0.5716 and 0.6231
- Inhibition rate (16μM), 48 h, HepG2 (HepG2 cells): 40.70±2.68
- Inhibitory rate (HeLa cells): 0.3434 and 0.3651 and 0.3539
- ODtreated/ODcontrol (HeLa cells): 0.6566 and 0.6349 and 0.6461
- Inhibition rate (16μM), 48 h, Hela (HeLa cells): 35.41±1.09
- ODtreated/ODcontrol (KYSE-30 cells; [1]): 0.634
- Inhibitory rate (KYSE-30 cells; first of three experiments): 0.366
- Inhibitory rate (KYSE-30 cells; second of three experiments): 0.4151
- Inhibitory rate (KYSE-30 cells; third of three experiments): 0.4118
- ODtreated/ODcontrol (KYSE-30 cells; [2]): 0.5849
- ODtreated/ODcontrol (KYSE-30 cells; [3]): 0.5882
- Inhibition rate (16μM), 48 h, KYSE-30 (KYSE-30 cells): 39.76±2.74
- Inhibitory rate (MCF-7 cells; [4]): 0.4071
- ODtreated/ODcontrol (MCF-7 cells; [4]): 0.5929
- Inhibitory rate (MCF-7 cells; [5]): 0.3917
- Inhibition rate (MCF-7 cells; [6]): 0.4369
- Inhibition rate (16μM), 48 h, MCF-7 (MCF-7 cells): 41.19±2.3
- ODtreated/ODcontrol (MCF-7 cells; second of three experiments): 0.6083
- ODtreated/ODcontrol (MCF-7 cells; third of three experiments): 0.5631

SMILES: CCc1ccccc1-n1cc(-c2cccc(NC(=O)c3cn4c(c(OC)c3=O)C(=O)N3[C@@H](C)CO[C@@H]3C4)c2)nn1 [KJ-4]
- IC50 (HepG2 cells): 15.1 ± 0.28 µM
- Inhibitory rate (HepG2 cells): 0.5128 and 0.512 and 0.5016
- ODtreated/ODcontrol (HepG2 cells): 0.4872 and 0.488 and 0.4984
- Inhibition rate (16μM), 48 h, HepG2 (HepG2 cells): 50.88±0.63
- Inhibitory rate (HeLa cells): 0.4763 and 0.5136 and 0.3886
- ODtreated/ODcontrol (HeLa cells): 0.5237 and 0.4864 and 0.6114
- Inhibition rate (16μM), 48 h, Hela (HeLa cells): 45.95±6.42
- ODtreated/ODcontrol (KYSE-30 cells; [1]): 0.492
- Inhibitory rate (KYSE-30 cells; first of three experiments): 0.508
- Inhibitory rate (KYSE-30 cells; second of three experiments): 0.3924
- Inhibitory rate (KYSE-30 cells; third of three experiments): 0.4136
- ODtreated/ODcontrol (KYSE-30 cells; [2]): 0.6076
- ODtreated/ODcontrol (KYSE-30 cells; [3]): 0.5864
- Inhibition rate (16μM), 48 h, KYSE-30 (KYSE-30 cells): 43.8±6.15
- Inhibitory rate (MCF-7 cells; [4]): 0.4901
- ODtreated/ODcontrol (MCF-7 cells; [4]): 0.5099
- Inhibitory rate (MCF-7 cells; [5]): 0.5179
- Inhibition rate (MCF-7 cells; [6]): 0.4059
- Inhibition rate (16μM), 48 h, MCF-7 (MCF-7 cells): 47.13±5.83
- ODtreated/ODcontrol (MCF-7 cells; second of three experiments): 0.4821
- ODtreated/ODcontrol (MCF-7 cells; third of three experiments): 0.5941

SMILES: COc1c2n(cc(C(=O)Nc3cccc(-c4cn(-c5ccc(F)cc5)nn4)c3)c1=O)CC1OCC(C)N1C2=O (stereo not shown) [KJ-14]
- IC50 (HepG2 cells): 9.94 ± 0.78 µM
- Inhibitory rate (HepG2 cells): 0.5683 and 0.5455 and 0.5583
- ODtreated/ODcontrol (HepG2 cells): 0.4317 and 0.4545 and 0.4417
- Inhibition rate (16μM), 48 h, HepG2 (HepG2 cells): 55.74±1.15
- Inhibitory rate (HeLa cells): 0.494 and 0.5678 and 0.4688
- ODtreated/ODcontrol (HeLa cells): 0.506 and 0.4322 and 0.5312
- Inhibition rate (16μM), 48 h, Hela (HeLa cells): 51.02±5.15
- ODtreated/ODcontrol (KYSE-30 cells; [1]): 0.5122
- Inhibitory rate (KYSE-30 cells; first of three experiments): 0.4878
- Inhibitory rate (KYSE-30 cells; second of three experiments): 0.5323
- ODtreated/ODcontrol (KYSE-30 cells; [2]): 0.4677
- Inhibition rate (16μM), 48 h, KYSE-30 (KYSE-30 cells): 52.98±4.08
- Inhibitory rate (MCF-7 cells; [4]): 0.4819
- ODtreated/ODcontrol (MCF-7 cells; [4]): 0.5181
- Inhibitory rate (MCF-7 cells; [5]): 0.5123
- Inhibition rate (MCF-7 cells; [6]): 0.5403
- Inhibition rate (16μM), 48 h, MCF-7 (MCF-7 cells): 51.15±2.92
- ODtreated/ODcontrol (MCF-7 cells; second of three experiments): 0.4877
- ODtreated/ODcontrol (MCF-7 cells; third of three experiments): 0.4597

SMILES: COc1c2n(cc(C(=O)Nc3cccc(-c4cn(-c5ccccc5OC(F)(F)F)nn4)c3)c1=O)C[C@H]1OC[C@H](C)N1C2=O [KJ-9]
- IC50 (HepG2 cells): 5.06 ± 0.06 µM
- Inhibitory rate (HepG2 cells): 0.8207 and 0.8024 and 0.7986
- ODtreated/ODcontrol (HepG2 cells): 0.1793 and 0.1976 and 0.2014
- Inhibition rate (16μM), 48 h, HepG2 (HepG2 cells): 80.72±1.18
- Inhibitory rate (HeLa cells): 0.7654 and 0.7384 and 0.7732
- ODtreated/ODcontrol (HeLa cells): 0.2346 and 0.2616 and 0.2268
- Inhibition rate (16μM), 48 h, Hela (HeLa cells): 75.9±1.83
- ODtreated/ODcontrol (KYSE-30 cells; [1]): 0.3517
- Inhibitory rate (KYSE-30 cells; first of three experiments): 0.6483
- Inhibitory rate (KYSE-30 cells; second of three experiments): 0.6765
- Inhibitory rate (KYSE-30 cells; third of three experiments): 0.5914
- ODtreated/ODcontrol (KYSE-30 cells; [2]): 0.3235
- ODtreated/ODcontrol (KYSE-30 cells; [3]): 0.4086
- Inhibition rate (16μM), 48 h, KYSE-30 (KYSE-30 cells): 63.87±4.34
- Inhibitory rate (MCF-7 cells; [4]): 0.7135
- ODtreated/ODcontrol (MCF-7 cells; [4]): 0.2865
- Inhibitory rate (MCF-7 cells; [5]): 0.7214
- Inhibition rate (MCF-7 cells; [6]): 0.6147
- Inhibition rate (16μM), 48 h, MCF-7 (MCF-7 cells): 68.32±5.95
- ODtreated/ODcontrol (MCF-7 cells; second of three experiments): 0.2786
- ODtreated/ODcontrol (MCF-7 cells; third of three experiments): 0.3853
